Measured values reported in EPA's ToxRefDB 2.

Experiments:
rat [1] = conditions: Prenatal developmental toxicity study, sprague dawley, Oral, Gavage/Intubation, dose end: 15 GD
rat [2] = conditions: Prenatal developmental toxicity study; sprague dawley; Oral; Gavage/Intubation; dose end: 15 GD; group: maternal; systemic / in life observation / clinical signs / post-dosing rooting in bedding + systemic / in life observation / food consumption / food …
rat [3] = conditions: Carcinogenicity, wistar, Oral, Feed, dose end: 24 month, group: systemic
rabbit = conditions: Prenatal developmental toxicity study, himalayan, Oral, Gavage/Intubation, dose end: 28 GD
mouse [4] = conditions: Carcinogenicity, other, Oral, Feed, dose end: 18 month, group: systemic
rat [5] = conditions: Multigenerational reproductive toxicity study, wistar, Oral, Feed, dose end: 2 generation
dog [6] = conditions: Chronic toxicity, beagle, Oral, Feed, dose end: 52 week, group: systemic
dog [7] = conditions: Subchronic oral toxicity in nonrodent, beagle, Feed, dose end: 90 day, group: systemic
rat [8] = conditions: Subchronic oral toxicity in rodents, wistar, Feed, dose end: 90 day, group: systemic, systemic / organ weight / thyroid gland / absolute + systemic / organ weight / thyroid gland / relative to body weight + systemic / …
rat [9] = conditions: Chronic toxicity, wistar, Oral, Feed, dose end: 104 week, group: systemic
mouse [10] = conditions: Subchronic oral toxicity in rodents, other, Feed, dose end: 90 day, group: systemic
[11] = group: developmental, developmental / developmental malformation / bone / [other]
[12] = group: maternal, systemic / in life observation / body weight / body weight + systemic / in life observation / clinical signs / [other] + systemic / in life …
[13] = group: developmental, developmental / developmental malformation / bone / incomplete ossification
[14] = group: maternal, reproductive / reproductive performance / aborted / aborted + reproductive / reproductive performance / premature delivery / premature …
[15] = systemic / in life observation / body weight / body weight + systemic / organ weight / liver / absolute + systemic / organ weight / liver / …
[16] = group: offspring, systemic / in life observation / body weight / offspring (pup) weight + systemic / in life observation / body weight / offspring (pup) …
[17] = group: offspring, systemic / organ weight / thymus / absolute
[18] = group: parental, systemic / pathology microscopic / liver / degeneration + systemic / pathology microscopic / liver / hypertrophy
[19] = group: reproductive, reproductive / reproductive performance / implantations / implantations
[20] = systemic / clinical chemistry / alkaline phosphatase (alp/alk) / alkaline phosphatase (alp/alk) + systemic / organ weight / liver / absolute…
[21] = systemic / hematology / blood clotting / blood clotting - prothrombin time
[22] = systemic / clinical chemistry / alanine aminotransferase (alt/sgpt) / alanine aminotransferase (alt/sgpt) + systemic / clinical chemistry / …
[23] = systemic / organ weight / thyroid gland / absolute + systemic / pathology microscopic / thyroid gland / hyperplasia + systemic / pathology …
[24] = systemic / organ weight / liver / absolute
[25] = systemic / organ weight / liver / absolute + systemic / organ weight / liver / relative to body weight + systemic / pathology microscopic / …

CSc1nc(NC2CC2)nc(NC(C)(C)C)n1 [Cybutryne]
LEL (rat [1]; [11]): 300 mg/kg/day | LOAEL (rat [1]; [11]): > 300 mg/kg/day | NEL (rat [1]; [11]): 150 mg/kg/day | NOAEL (rat [1]; [11]): ≥ 300 mg/kg/day | LOAEL (rat [1]; group: maternal, systemic / in life observation / body weight / body weight + systemic / in life observation / body weight / body weight gain): 300 mg/kg/day | LEL (rat [1]; group: maternal, systemic / in life observation / body weight / body weight + systemic / in life observation / clinical signs / [other]): 150 mg/kg/day | NEL (rat [1]; [12]): 50 mg/kg/day | NOAEL (rat [1]; [12]): 150 mg/kg/day | LEL (rat [2]): 150 mg/kg/day | LOAEL (rat [2]): 150 mg/kg/day | NEL (rat [2]): 50 mg/kg/day | NOAEL (rat [2]): 50 mg/kg/day

O=C(Nc1ccccc1-c1ccc(Cl)cc1)c1cccnc1Cl [Boscalid]
NEL (rat [3]; systemic / in life observation / mortality / mortality + systemic / in life observation / body weight / body weight + systemic / in life …): 1020 mg/kg/day | LOAEL (rat [3]; systemic / pathology microscopic / thyroid gland / hyperplasia + systemic / pathology microscopic / thyroid gland / hypertrophy): 116 mg/kg/day | NOAEL (rat [3]; systemic / pathology microscopic / thyroid gland / hyperplasia + systemic / pathology microscopic / thyroid gland / hypertrophy + systemic…): 23 mg/kg/day | LEL (rabbit; [13]): 1000 mg/kg/day | LOAEL (rabbit; [13]): > 1000 mg/kg/day | NEL (rabbit; [13]): 300 mg/kg/day | NOAEL (rabbit; [13]): ≥ 1000 mg/kg/day | LEL (rabbit; [14]): 1000 mg/kg/day | LOAEL (rabbit; [14]): 1000 mg/kg/day | NEL (rabbit; [14]): 300 mg/kg/day | NOAEL (rabbit; [14]): 300 mg/kg/day | LOAEL (mouse [4]; systemic / in life observation / body weight / body weight): 331 mg/kg/day | NEL (mouse [4]; [15]): 13 mg/kg/day | NOAEL (mouse [4]; [15]): 65 mg/kg/day | LEL (mouse [4]; systemic / in life observation / body weight / body weight + systemic / organ weight / liver / relative to body weight): 65 mg/kg/day | LOAEL (rat [5]; [16]): 124 mg/kg/day | NOAEL (rat [5]; [16]): 12.3 mg/kg/day | LEL (rat [5]; [17]): 12.3 mg/kg/day | NEL (rat [5]; [17]): < 12.3 mg/kg/day | LOAEL (rat [5]; group: parental, systemic / pathology microscopic / liver / degeneration): 1030 mg/kg/day | NEL (rat [5]; [18]): 10.1 mg/kg/day | NOAEL (rat [5]; [18]): 101 mg/kg/day | LEL (rat [5]; group: parental, systemic / pathology microscopic / liver / hypertrophy): 101 mg/kg/day | LEL (rat [5]; [19]): 10.7 mg/kg/day | LOAEL (rat [5]; [19]): > 1060 mg/kg/day | NEL (rat [5]; [19]): < 10.7 mg/kg/day | NOAEL (rat [5]; [19]): ≥ 1060 mg/kg/day | LOAEL (dog [6]; systemic / clinical chemistry / alkaline phosphatase (alp/alk) / alkaline phosphatase (alp/alk) + systemic / organ weight / liver / absolute): 57.4 mg/kg/day | LEL (dog [6]; [20]): 57.4 mg/kg/day | NEL (dog [6]; [20]): 21.8 mg/kg/day | NOAEL (dog [6]; [20]): 21.8 mg/kg/day | LOAEL (dog [7]; [20]): 78.1 mg/kg/day | NOAEL (dog [7]; [20]): 7.6 mg/kg/day | LEL (dog [7]; [21]): 8.1 mg/kg/day | NEL (dog [7]; [21]): < 8.1 mg/kg/day | LEL (rat [8]): 137 mg/kg/day | LOAEL (rat [8]): 137 mg/kg/day | NEL (rat [8]): 34 mg/kg/day | NOAEL (rat [8]): 34 mg/kg/day | LEL (rat [9]; [22]): 5.9 mg/kg/day | NEL (rat [9]; [22]): < 5.9 mg/kg/day | LOAEL (rat [9]; [23]): 110 mg/kg/day | NOAEL (rat [9]; [23]): 21.9 mg/kg/day | LEL (mouse [10]; [24]): 42 mg/kg/day | NEL (mouse [10]; [24]): < 42 mg/kg/day | LOAEL (mouse [10]; [25]): 788 mg/kg/day | NOAEL (mouse [10]; [25]): 197 mg/kg/day
